The text below walks through data of patent US4887995A, “Method of treating sickle cell anemia” (University of Pittsburgh, priority 1985, dated 1989).

For one series, the system named is sickle hemoglobin (HbS). Put plainly: solubility assay: ability of a compound to increase solubility of sickle hemoglobin. The conditions noted are these: low concentrations (5 mM.); the higher the ratio the higher the activity; compared with DiClBz and p-BrBz. The series is classed as biochemical. The text has this:
In comparative tests which we reported in J. of Med. Chem., 1984, 27, 103-105, which is incorporated herein by reference, ethacrynic acid was compared with active agents (1) [(3,4-dichlorobenzyl)oxy]acetic acid (DiClBz2) and (2) [(p-bromobenzyl)oxy]acetic acid (p-BrBz). The solubility assay measures the ability of a compound to increase solubility of sickle hemoglobin (HbS). […] The higher the ratio the higher the activity of the compound.

The next series has as its system HbS. Put plainly: chromatographic separation for covalent binding to HbS.
The test system of another series is erythrocyte membranes. The series is described as follows: transport across erythrocyte membranes. It counts as in vitro ADME.

For the compound `C=C(CC)C(=O)c1ccc(OCC(=O)O)c(Cl)c1Cl` [ethacrynic acid], the solubility ratio entry in the series on sickle hemoglobin (HbS) was “higher solubility ratio than DiClBz and p-BrBz”. In addition, in the series with HbS, the “covalent binding between HbS and compound” value is “desired tight covalent binding between the HbS and ethacrynic acid had occurred”. The “ability to cross the red blood cell membrane and react with hemoglobin” value in the series with erythrocyte membranes is “confirmed the ability of ethacrynic acid to cross the red blood cell membrane and react with hemoglobin”.
